Key:
Type in all cases: in vivo
Scirpus juncoides [1] = assay: Test Example 2: herbicidal effect test by treatment during growing period in paddy rice cultivation (seven days after seeding); settings: 120 g/10a active ingredient, assessed 14 days after treatment, dry weight vs untreated area
Method in brief: (§1)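 Sow 30 seeds per species (0–1 cm) into puddled, fertilized paddy soil; keep flooded ~3 cm in greenhouse. Day 7 after seeding: drop water-diluted emulsion, 120 g a.i./10 ares. Harvest 14 d post-treatment; compare dry weight with untreated pots (duplicate).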

[2] = test system: broad leaf weeds (Lindernia pyxidaria and Monochoria vaginalis); assay: as above; settings: 120 g/10a active ingredient, assessed 14 days after treatment, dry weight vs untreated area
Method in brief: as §1

Echinochloa crus-galli [3] = assay: as above; settings: 120 g/10a active ingredient, assessed 14 days after treatment, dry weight vs untreated area
Method in brief: as §1

Chenopodium album [4] = assay: Test Example 3: herbicidal effect test by treatment of dry field farming soil (one day after seeding); settings: 120 g/10a active ingredient, evaluated 14 days after treatment
Method in brief: (§2)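 Weeds were seeded into the upper soil layer of alluvial field soil and, one day afterwards, the soil surface was sprayed with water-diluted emulsion delivering 120 g active ingredient per 10 ares. Mean plant dry weight relative to untreated pots after 14 days gave the herbicidal rate, tested in duplicate.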

Amaranthus viridis [5] = assay: as above; settings: 120 g/10a active ingredient, evaluated 14 days after treatment
Method in brief: as §2

southern crabgrass [6] = assay: as above; settings: 120 g/10a active ingredient, evaluated 14 days after treatment
Method in brief: as §2

Echinochloa crus-galli [7] = assay: as above; settings: 120 g/10a active ingredient, evaluated 14 days after treatment
Method in brief: as §2

Chenopodium album [8] = assay: Test Example 4: herbicidal effect test by treatment of leave and stem in dry field farming (seven days after seeding); settings: 120 g/10a active ingredient; emulsion sprayed seven days after seeding; evaluated 14 days after treatment
Method in brief: (§3)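 Twenty seeds per species were mixed into the top 1 cm of alluvial soil in 36 cm^2 pots; emulsions were sprayed seven days after seeding at 100 L per 10 ares (120 g active ingredient per 10 ares). Herbicidal rate (%) = {1 − treated/untreated mean dry weight} × 100, 14 days after treatment, duplicate.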

Amaranthus viridis [9] = assay: as above; settings: 120 g/10a active ingredient; emulsion sprayed seven days after seeding; evaluated 14 days after treatment
Method in brief: as §3

southern crabgrass [10] = assay: as above; settings: 120 g/10a active ingredient; emulsion sprayed seven days after seeding; evaluated 14 days after treatment
Method in brief: as §3

Echinochloa crus-galli [11] = assay: as above; settings: 120 g/10a active ingredient; emulsion sprayed seven days after seeding; evaluated 14 days after treatment
Method in brief: as §3

Scirpus juncoides [12] = assay: Test Example 1: herbicidal effect test by treatment of rice paddy soil (immediately after seeding); settings: 120 g/10a active ingredient, dry weight vs untreated area, 14 days after treatment
Method in brief: (§4)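 Paddy soil in pots with compound fertilizer, puddled; 30 seeds per species sown at 0–1 cm, flooded ~3 cm, greenhouse. Water-diluted emulsions dropped onto water immediately after seeding at 120 g active ingredient per 10 ares, duplicate. Herbicidal rate (%) from plant dry weight versus untreated, 14 days after treatment.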

[13] = test system: broad leaf weeds (Lindernia pyxidaria and Monochoria vaginalis); assay: as above; settings: 120 g/10a active ingredient, dry weight vs untreated area, 14 days after treatment
Method in brief: as §4

Echinochloa crus-galli [14] = assay: as above; settings: 120 g/10a active ingredient, dry weight vs untreated area, 14 days after treatment
Method in brief: as §4

SMILES | Herbicidal rate (%) Scirpus juncoides (Scirpus juncoides [1]) [%] | Herbicidal rate (%) Lindernia pyxidaria [2] [%] | Herbicidal rate (%) Monochoria vaginalis [2] [%] | Herbicidal rate (%) Echinochloa crus-galli (Echinochloa crus-galli [3]) [%] | herbicidal rate, Chenopodium album (Chenopodium album [4]) [%] | herbicidal rate, Amaranthus viridis (Amaranthus viridis [5]) [%] | herbicidal rate, southern crabgrass (southern crabgrass [6]) [%] | herbicidal rate, Echinochloa crus-galli (Echinochloa crus-galli [7]) [%] | herbicidal effect (herbicidal rate), Chenopodium album (Chenopodium album [8]) [%] | herbicidal effect (herbicidal rate), Amaranthus viridis (Amaranthus viridis [9]) [%] | herbicidal effect (herbicidal rate), southern crabgrass (southern crabgrass [10]) [%] | herbicidal effect (herbicidal rate), Echinochloa crus-galli (Echinochloa crus-galli [11]) [%] | Herbicidal rate (%) Scirpus juncoides (Scirpus juncoides [12]) [%] | Herbicidal rate (%) Lindernia pyxidaria [13] [%] | Herbicidal rate (%) Monochoria vaginalis [13] [%] | Herbicidal rate (%) Echinochloa crus-galli (Echinochloa crus-galli [14]) [%]
CCC(C)n1oc(=O)c(Cc2ccccc2N(C(=O)C2CCCCC2)S(=O)(=O)C(F)(F)F)c1C (stereo not shown) [Compound 1-432] | 90 | 90 | 90 | 90 | 90 | 90 | 90 | 90 | 40 | 40 | 90 | 90 | 90 | 90 | 90 | 90
CCC(C)n1oc(=O)c(Cc2ccccc2N(C(=O)C2CCCO2)S(=O)(=O)C(F)(F)F)c1C (stereo not shown) [Compound 1-522] | 90 | 90 | 90 | 90 | 90 | 90 | 90 | 90 | 40 | 40 | 90 | 90 | 90 | 90 | 90 | 90
CCC(CC)Cn1oc(=O)c(Cc2ccccc2NS(=O)(=O)C(F)(F)F)c1C [Compound 1-113] | 90 | 60 | 80 | 90 | 100 | 80 | 90 | 90 | 40 | 60 | 60 | 80 | 100 | 100 | 100 | 100
CCC(C)n1oc(=O)c(Cc2ccccc2N(C(=O)c2ccccn2)S(=O)(=O)C(F)(F)F)c1C (stereo not shown) [Compound 1-528] | 90 | 90 | 90 | 90 | 90 | 90 | 90 | 90 | 40 | 40 | 90 | 90 | 90 | 90 | 90 | 90
CSCCn1oc(=O)c(Cc2ccccc2N(C(=O)OCC(C)C)S(=O)(=O)C(F)(F)F)c1C [Compound 1-676] | 90 | 90 | 90 | 90 | 90 | 90 | 90 | 90 | 40 | 40 | 90 | 90 | 90 | 90 | 90 | 90
COC(=O)N(c1ccccc1Cc1c(C)n(CCSC)oc1=O)S(=O)(=O)C(F)(F)F [Compound 1-592] | 90 | 90 | 90 | 90 | 90 | 90 | 90 | 90 | 40 | 40 | 90 | 90 | 90 | 90 | 90 | 90
CCC(C)CCn1oc(=O)c(Cc2ccccc2N(S(=O)(=O)C(F)(F)F)S(=O)(=O)C(F)(F)F)c1C (stereo not shown) [Compound 1-978] | 60 | 50 | 60 | 100 | 90 | 90 | 90 | 80 | 40 | 40 | 50 | 60 | 90 | 90 | 80 | 100
CCOC(=O)N(c1ccccc1Cc1c(C)n(C(C)CC)oc1=O)S(=O)(=O)C(F)(F)F (stereo not shown) [Compound 1-605] | 90 | 90 | 90 | 90 | 90 | 90 | 90 | 90 | 40 | 40 | 90 | 90 | 90 | 90 | 90 | 90
Cc1c(Cc2ccccc2N(S(C)(=O)=O)S(=O)(=O)C(F)(F)F)c(=O)on1C(C)(C)C [Compound 1-889] | 90 | 90 | 90 | 90 | 90 | 90 | 90 | 90 | 40 | 40 | 90 | 90 | 90 | 90 | 90 | 90
Cc1c(Cc2ccccc2N(S(=O)(=O)C(F)(F)F)S(=O)(=O)C(F)(F)F)c(=O)on1C(c1ccccc1)C(C)C (stereo not shown) [Compound 1-1040] | 70 | 60 | 60 | 100 | 80 | 100 | 100 | 100 | 40 | 50 | 90 | 90 | 90 | 100 | 90 | 100
